Tested on: Escherichia coli W4573
Assay: Test A. Minimum Inhibitory Concentration (MIC)-based assay for efflux pump inhibition (enhancement of minocycline MIC)
Assay type: cell-based
Conditions: ratio of minocycline MIC in absence of test compound to minocycline MIC in presence of test compound, test compound 12.5 μg/mL, CAMH broth, 24 hours at 37° C.
Experimental: Test A. Minimum Inhibitory Concentration (MIC)-Based Assay for Efflux Pump Inhibition:
MIC-based assays were used to evaluate the impact of potential efflux pump inhibiting (EPI) compounds on the MIC of minocycline, an antibiotic known to be a substrate for Gram-negative bacterial efflux pumps. The assays were conducted in accordance with Clinical and Laboratory Standards Institute (CLSI) guidelines for broth microdilution, with the modification that assays were conducted in the presence and absence of the test EPI compounds. When present, the EPI compounds were added to cation-adjusted Mueller-Hinton (CAMH) broth (Becton, Dickinson and Co., Franklin Lakes, N.J.) at a final concentration of 12.5 μg/mL.
Log-phase Gram-negative bacteria were added to 96-well microtiter plates (at 5×10^5 colony forming units (CFU) per mL) containing two-fold serial dilutions of minocycline in CAMH broth either in the absence or presence of the test EPI compounds. In all assays, each serial dilution of minocycline was present in duplicate. The final volume in each well was 0.1 mL, and the microtiter plates were incubated aerobically for 24 hours at 37° C. Bacterial growth was then monitored by measuring the optical density (OD) at 600 nm using a VersaMax® plate reader (Molecular Devices, Inc., Sunnyvale, Calif.), with the MIC being defined as the lowest compound concentration at which growth was ≥90% inhibited compared to antibiotic-free control. The following Gram-negative bacterial strains were included in these assays: • Escherichia coli W4573, ATCC 25922, and ATCC BAA-201 (an extended spectrum β-lactamase (ESBL)-producing strain that expresses the TEM-3 β-lactamase). • Klebsiella pneumoniae ATCC 13883 and ATCC 700603 (an ESBL-producing strain that expresses the SHV-18 β-lactamase). • Pseudomonas aeruginosa ATCC 27853. The efflux pump mutant E. coli strain N43 (acrA1) was used as a positive control.
The enhancement is the ratio of the minocycline MIC in the absence of test compound to the minocycline MIC in the presence of test compound.

SMILES | Enhancement
Cl.Cl.NCCC[C@H](N)CNC(=O)c1ccccc1C(F)(F)F [Example 1, (S)-5-(2-(trifluoromethyl)benzamido)pentane-1,4-diaminium chloride] | 1
Cl.Cl.NCCC[C@H](N)CNC(=O)c1cccc(C(F)(F)F)c1 [Example 2, (S)-5-(3-(trifluoromethyl)benzamido)pentane-1,4-diaminium chloride] | 2
Cl.Cl.NCCC[C@H](N)CNC(=O)c1ccc(C(F)(F)F)cc1 [Example 3, (S)-5-(4-(trifluoromethyl)benzamido)pentane-1,4-diaminium chloride] | 4
Cl.Cl.NCCC[C@H](N)CNC(=O)c1ccccc1-c1ccccc1 [Example 4, (S)-5-([1,1′-biphenyl]-2-carboxamido)pentane-1,4-diaminium chloride] | 2
Cl.Cl.NCCC[C@H](N)CNC(=O)c1cc(C(F)(F)F)ccc1C(F)(F)F [Example 5, (S)-5-(2,5-bis(trifluoromethyl)benzamido)pentane-1,4-diaminium chloride] | 2
Cl.Cl.NCCC[C@H](N)CNC(=O)c1ccc(C(F)(F)F)c(C(F)(F)F)c1 [Example 6, (S)-5-(3,4-Bis(trifluoromethyl)benzamido)pentane-1,4-diaminium chloride] | 32
Cl.Cl.NCCC[C@H](N)CNC(=O)c1cc(C(F)(F)F)cc(C(F)(F)F)c1 [Example 7, (S)-5-(3,5-bis(trifluoromethyl)benzamido)pentane-1,4-diaminium chloride] | 16
Cl.Cl.NCCC[C@@H](N)CNC(=O)c1cc(C(F)(F)F)cc(C(F)(F)F)c1 [Example 8, (R)-5-(3,5-bis(trifluoromethyl)benzamido)pentane-1,4-diaminium chloride] | 8
Cl.Cl.NCC[C@H](N)CNC(=O)c1cc(C(F)(F)F)cc(C(F)(F)F)c1 [Example 9, (S)-4-(3,5-bis(trifluoromethyl)benzamido)butane-1,3-diaminium chloride] | 16
CC(C)(C)c1cc(C(=O)NC[C@@H](N)CCCN)cc(C(C)(C)C)c1.Cl.Cl [Example 10, (S)-5-(3,5-di-tert-butylbenzamido)pentane-1,4-diaminium chloride] | 64
Cl.Cl.NCCC[C@H](N)CNC(=O)c1cc(-c2ccccc2)cc(-c2ccccc2)c1 [Example 11, (S)-5-([1,1′:3′,1″-terphenyl]-5′-carboxamido)pentane-1,4-diaminium chloride] | 128
NC[C@@H](N)CCCNC(=O)c1cc(-c2ccccc2)cc(-c2ccccc2)c1 [Example 12, (S)-5-([1,1′:3′,1″-terphenyl]-5′-carboxamido)pentane-1,2-diaminium chloride] | 2
Cl.Cl.NCCC[C@H](N)CNC(=O)c1cc(-c2ccc(F)cc2)cc(-c2ccc(F)cc2)c1 [Example 13, (S)-5-(4,4″-difluoro-[1,1′:3′,1″-terphenyl]-5′-carboxamido)pentane-1,4-diaminium chloride] | 128

Source: patent US9926261B2, “Bacterial efflux pump inhibitors” (Rutgers, The State University of New Jersey, priority 2015, dated 2018)
